Measurements taken from ChEMBL document CHEMBL4190365, “Synthesis and antiproliferative properties of new hydrophilic esters of triterpenic acids” (Eur J Med Chem, 2017).

Legend:
Type in all cases: functional, cell-based
[1] = tested on: CCRF-CEM; test: Cytotoxicity in human CEM cells assessed as reduction in cell viability incubated for 72 hrs by calcein AM cytotoxicity assay
[2] = tested on: MCF7; test: Cytotoxicity in human MCF7 cells assessed as reduction in cell viability incubated for 72 hrs by calcein AM cytotoxicity assay
[3] = tested on: HeLa; test: Cytotoxicity in human HeLa cells assessed as reduction in cell viability incubated for 72 hrs by calcein AM cytotoxicity assay
[4] = tested on: G-361; test: Cytotoxicity in human G361 cells assessed as reduction in cell viability incubated for 72 hrs by calcein AM cytotoxicity assay
[5] = tested on: BJ; test: Cytotoxicity in human BJ cells assessed as reduction in cell viability incubated for 72 hrs by calcein AM cytotoxicity assay

Compound	IC50 ([1]; Homo sapiens, CCRF-CEM, 72 h)	IC50 ([2]; mcf7)	IC50 ([3]; hela)	IC50 ([4]; g-361)	IC50 ([5]; bj)	IC50 ([1]; ccrf-cem)	IC50 ([2]; Homo sapiens, MCF7, 72 h)	IC50 ([3]; Homo sapiens, HeLa, 72 h)	IC50 ([4]; Homo sapiens, G-361, 72 h)	IC50 ([5]; Homo sapiens, BJ, 72 h)
C=C(C)[C@@H]1CC[C@]2(C(=O)OCCN3CCCCC3)CC[C@]3(C)[C@H](CC[C@@H]4[C@@]5(C)CC[C@H](O)C(C)(C)[C@@H]5CC[C@]43C)[C@@H]12 [listing 1 of 2 here]	21.5 µM	33.5 µM	24.7 µM	33.8 µM	45.9 µM					
C=C(C)[C@@H]1CC[C@]2(C(=O)OCCN3CCCC3)CC[C@]3(C)[C@H](CC[C@@H]4[C@@]5(C)CC[C@H](O)C(C)(C)[C@@H]5CC[C@]43C)[C@@H]12 [listing 1 of 2 here]						5 µM	19.9 µM	8.5 µM	11.6 µM	23.1 µM
COCCOC(=O)[C@]1(COC(C)=O)CC[C@]2(C)[C@H](CC[C@@H]3[C@@]4(C)CC[C@H](OC(C)=O)C(C)(C)[C@@H]4CC[C@]32C)C1=O	> 50 µM						> 50 µM	> 50 µM	> 50 µM	> 50 µM
CC(=O)OC[C@H]1O[C@@H](OC(=O)[C@@]23CC[C@]4(C)[C@H](CC[C@@H]5[C@@]6(C)CC[C@H](OC(C)=O)C(C)(C)[C@@H]6CC[C@]54C)C2=C(C(C)C)C(=O)C3)[C@H](OC(C)=O)[C@@H](OC(C)=O)[C@@H]1OC(C)=O	9.1 µM						3.8 µM	9.8 µM	4.3 µM	> 50 µM
CC(C)[C@@H]1CC[C@]2(C(=O)OCCN3CCCCC3)CC[C@]3(C)[C@H](CC[C@@H]4[C@@]5(C)CC[C@H](O)C(C)(C)[C@@H]5CC[C@]43C)[C@@H]12 [listing 1 of 2 here]						19.6 µM	31.8 µM	26.7 µM	32.2 µM	45.1 µM
C=C(C)[C@@H]1CC[C@]2(C(=O)OCCOCCOC)CC[C@]3(C)[C@H](CC[C@@H]4[C@@]5(C)CC[C@H](O)C(C)(C)[C@@H]5CC[C@]43C)[C@@H]12	30.7 µM						36.4 µM	14.5 µM	26.9 µM	> 50 µM
C=C(C)[C@@H]1CC[C@]2(C(=O)O[C@@H]3O[C@H](CO)[C@@H](O)[C@H](O)[C@H]3O)CC[C@]3(C)[C@H](CC[C@@H]4[C@@]5(C)CC[C@H](O)C(C)(C)[C@@H]5CC[C@]43C)[C@@H]12	> 50 µM						> 50 µM	> 50 µM	> 50 µM	> 50 µM
CC(C)[C@@H]1CC[C@]2(C(=O)OCC(=O)O)CC[C@]3(C)[C@H](CC[C@@H]4[C@@]5(C)CC[C@H](O)C(C)(C)[C@@H]5CC[C@]43C)[C@@H]12	> 50 µM						> 50 µM	> 50 µM	> 50 µM	> 50 µM
CC(C)[C@@H]1CC[C@]2(C(=O)OCCN3CCCCC3)CC[C@]3(C)[C@H](CC[C@@H]4[C@@]5(C)CC[C@H](O)C(C)(C)[C@@H]5CC[C@]43C)[C@@H]12 [listing 2 of 2 here]	26.7 µM	26.1 µM		29.9 µM	46.5 µM					
COCCOC(=O)[C@@]12CC[C@]3(C)[C@H](CC[C@@H]4[C@@]5(C)CC[C@H](OC(C)=O)C(C)(C)[C@@H]5CC[C@]43C)C1=C(C(C)C)C(=O)C2	17.8 µM						42.5 µM	> 50 µM	19.9 µM	> 50 µM
C=C(C)[C@@H]1CC[C@]2(C(=O)O[C@@H]3O[C@H](CO)[C@H](O)[C@H](O)[C@H]3O)CC[C@]3(C)[C@H](CC[C@@H]4[C@@]5(C)CC[C@H](O)C(C)(C)[C@@H]5CC[C@]43C)[C@@H]12	> 50 µM						> 50 µM	> 50 µM	> 50 µM	> 50 µM
CC(=O)OC[C@@]1(C(=O)OCCBr)CC[C@]2(C)[C@H](CC[C@@H]3[C@@]4(C)CC[C@H](OC(C)=O)C(C)(C)[C@@H]4CC[C@]32C)C1=O	> 50 µM						> 50 µM	> 50 µM	> 50 µM	> 50 µM
CC(C)[C@@H]1CC[C@]2(C(=O)OCCN3CCOCC3)CC[C@]3(C)[C@H](CC[C@@H]4[C@@]5(C)CC[C@H](O)C(C)(C)[C@@H]5CC[C@]43C)[C@@H]12	45.8 µM						37.6 µM	31.8 µM	33.8 µM	37.4 µM
CC(=O)OC[C@H]1O[C@@H](OC(=O)[C@]23CC[C@@H](C(C)C)[C@@H]2[C@H]2CC[C@@H]4[C@@]5(C)CC[C@H](O)C(C)(C)[C@@H]5CC[C@@]4(C)[C@]2(C)CC3)[C@H](OC(C)=O)[C@@H](OC(C)=O)[C@@H]1OC(C)=O	18.6 µM						13.9 µM	15.6 µM	8.1 µM	> 50 µM
CC(=O)O[C@H]1CC[C@]2(C)[C@H]3CC[C@@H]4C5=C(C(C)C)C(=O)C[C@]5(C(=O)O[C@@H]5O[C@H](CO)[C@@H](O)[C@H](O)[C@H]5O)CC[C@@]4(C)[C@]3(C)CC[C@H]2C1(C)C	12.2 µM						6.6 µM	9.3 µM	6.7 µM	48.2 µM
CC(=O)O[C@H]1CC[C@]2(C)[C@H]3CC[C@@H]4C5=C(C(C)C)C(=O)C[C@]5(C(=O)OCCN5CCCCC5)CC[C@@]4(C)[C@]3(C)CC[C@H]2C1(C)C	21.2 µM	5.8 µM	9.1 µM	7.2 µM	44.6 µM					
CC(=O)OC[C@H]1O[C@@H](OC(=O)[C@]2(COC(C)=O)CC[C@]3(C)[C@H](CC[C@@H]4[C@@]5(C)CC[C@H](OC(C)=O)C(C)(C)[C@@H]5CC[C@]43C)[C@@H]2O)[C@H](OC(C)=O)[C@@H](OC(C)=O)[C@@H]1OC(C)=O	> 50 µM						> 50 µM	> 50 µM	> 50 µM	43 µM
CC(=O)OC[C@@]1(C(=O)OCCN2CCCC2)CC[C@]2(C)[C@H](CC[C@@H]3[C@@]4(C)CC[C@H](OC(C)=O)C(C)(C)[C@@H]4CC[C@]32C)[C@@H]1O	8.3 µM						10 µM	10.6 µM	7.4 µM	14.1 µM
C=C(C)[C@@H]1CC[C@]2(C(=O)OCCN3CCCC3)CC[C@]3(C)[C@H](CC[C@@H]4[C@@]5(C)CC[C@H](O)C(C)(C)[C@@H]5CC[C@]43C)[C@@H]12 [listing 2 of 2 here]		14.3 µM		7.1 µM	15.5 µM	2.3 µM				
C=C(C)[C@@H]1CC[C@]2(C(=O)OCCN3CCOCC3)CC[C@]3(C)[C@H](CC[C@@H]4[C@@]5(C)CC[C@H](O)C(C)(C)[C@@H]5CC[C@]43C)[C@@H]12 [listing 1 of 2 here]	> 50 µM		> 50 µM							
CC(=O)OC[C@H]1O[C@@H](OC(=O)[C@@]23CC[C@]4(C)[C@H](CC[C@@H]5[C@@]6(C)CC[C@H](OC(C)=O)C(C)(C)[C@@H]6CC[C@]54C)C2=C(C(C)C)C(=O)C3)[C@H](OC(C)=O)[C@@H](OC(C)=O)[C@H]1OC(C)=O	4.5 µM						3.7 µM	44.3 µM	3.1 µM	31.8 µM
CC(=O)O[C@H]1CC[C@]2(C)[C@H]3CC[C@@H]4C5=C(C(C)C)C(=O)C[C@]5(C(=O)OCCN5CCOCC5)CC[C@@]4(C)[C@]3(C)CC[C@H]2C1(C)C	12.6 µM						14.5 µM	16.1 µM	7 µM	42.5 µM
CC(=O)OC[C@@]1(C(=O)OCCN2CCCC2)CC[C@]2(C)[C@H](CC[C@@H]3[C@@]4(C)CC[C@H](OC(C)=O)C(C)(C)[C@@H]4CC[C@]32C)C1=O	25.8 µM						> 50 µM	> 50 µM	20.3 µM	> 50 µM
CC(=O)O[C@H]1CC[C@]2(C)[C@H]3CC[C@@H]4C5=C(C(C)C)C(=O)C[C@]5(C(=O)OCCN5CCCC5)CC[C@@]4(C)[C@]3(C)CC[C@H]2C1(C)C	13.3 µM						7.3 µM	7.7 µM	6.5 µM	19.1 µM
COCCOCCOC(=O)[C@@]12CC[C@]3(C)[C@H](CC[C@@H]4[C@@]5(C)CC[C@H](OC(C)=O)C(C)(C)[C@@H]5CC[C@]43C)C1=C(C(C)C)C(=O)C2	17.6 µM						21.9 µM	17.1 µM	11.8 µM	> 50 µM
CC(=O)OC[C@@]1(C(=O)OCCN2CCCCC2)CC[C@]2(C)[C@H](CC[C@@H]3[C@@]4(C)CC[C@H](OC(C)=O)C(C)(C)[C@@H]4CC[C@]32C)[C@@H]1O	> 50 µM						27.2 µM	> 50 µM	> 50 µM	> 50 µM
C=C(C)[C@@H]1CC[C@]2(C(=O)OCC(=O)O)CC[C@]3(C)[C@H](CC[C@@H]4[C@@]5(C)CC[C@H](O)C(C)(C)[C@@H]5CC[C@]43C)[C@@H]12	> 50 µM						> 50 µM	> 50 µM	> 50 µM	> 50 µM
C=C(C)[C@@H]1CC[C@]2(C(=O)OCCN3CCCCC3)CC[C@]3(C)[C@H](CC[C@@H]4[C@@]5(C)CC[C@H](O)C(C)(C)[C@@H]5CC[C@]43C)[C@@H]12 [listing 2 of 2 here]						26.2 µM	32.8 µM	23.8 µM	28.6 µM	43.2 µM
CC(=O)OC[C@@]1(C(=O)OCC(=O)OCc2ccccc2)CC[C@]2(C)[C@H](CC[C@@H]3[C@@]4(C)CC[C@H](OC(C)=O)C(C)(C)[C@@H]4CC[C@]32C)C1=O	> 50 µM						> 50 µM	> 50 µM	> 50 µM	> 50 µM
C=C(C)[C@@H]1CC[C@]2(C(=O)OCCN3CCOCC3)CC[C@]3(C)[C@H](CC[C@@H]4[C@@]5(C)CC[C@H](O)C(C)(C)[C@@H]5CC[C@]43C)[C@@H]12 [listing 2 of 2 here]							> 50 µM	50 µM	> 50 µM	> 50 µM
